Results: patent publication US10286057B2, “Cyclic HIV-1 Env V3 glycopeptide immunogens” (DUKE UNIVERSITY, priority 2013, dated 2019)
Ends that are not written are not given here. * marks the point of attachment. Man3GlcNAc2 = CC(=O)N[C@@H]1[C@@H](O)[C@H](O[C@@H]2O[C@H](CO)[C@@H](O[C@@H]3O[C@H](CO[C@H]4O[C@H](CO)[C@@H](O)[C@H](O)[C@@H]4O)[C@@H](O)[C@H](O[C@H]4O[C@H](CO)[C@@H](O)[C@H](O)[C@@H]4O)[C@@H]3O)[C@H](O)[C@H]2NC(C)=O)[C@@H](CO)O[C@H]1*

Columns and labels:
PGT128 [1] = conditions: protein-free glycan; cited from earlier work
BnAb CH01 [2] = assay: SPR (Biacore) binding of V1V2 antigens to BnAb CH01; conditions: FIG. 1C, antigen 200 μg/ml
Protocol: (§1) FIGS. 1A-1E. Initial evaluation of synthetic V1V2 glycopeptide constructs. […] Surface plasmon reasonance (SPR) analysis of the interaction of V1V2 Man5GlcNAc2 (green), Man3GlcNAc2 (red), GlcNAc2 (blue), or aglycone (magenta) antigens with BnAbs PG9 (FIG. 1B), CH01 (FIG. 1C), or their respective umutated common ancestor (UCA) antibodies, PG9 UCA (FIG. 1D), and CH01-04 UCA (FIG. 1E). Concentration of antigens was 200 μg/ml for FIGS. […], and 100 μg/ml for FIGS. 1D and 1E, RU=response units
(§2) Using chemical methods (see, for example, those referenced above), a set of homogeneous V1V2 glycopeptides bearing Man3GlcNAc2, Man5GlcNAc2, and GlcNAc2 N-glycans were synthesized de novo (FIG. 1A). […] Importantly, binding by the naked “aglycone” (FIGS. 1B,C) or the solitary protein-free Man3 and Man5 oligosaccharides (data not shown) was not observed.

BnAb PG9 [3] = assay: SPR (Biacore) binding of V1V2 antigens to BnAb PG9; conditions: FIG. 1B, antigen 200 μg/ml
Protocol: as §1, §2

PGTs 125-128 and 130 = conditions: cited from earlier work
2G12 = assay: Binding to mAb 2G12; conditions: FIG. 13C
Source text: (§3) FIG. 13A-D show binding of PGT mAbs to synthetic Man9GlcNAc2 glycan. Binding of V3 Bnab to Man9 glycan. […] Thus, the binding of Man9GlcnAc2 glycan was detected only for V3-glycan dependent PGT BNAbs.
FIGS. 11-13 depict various experimental data showing that synthetic glycopeptides, such as for example the peptide of FIG. 1, can show differential binding to bnAbs vs non-neutralizing antibodies. […] Both 2G12 mAb and 2G12 UCA bound well to Man5 V1V2 dimer, indicating recognition of the glycan cluster on a V2 backbone.

PGT125 = assay: SPR binding to captured mAb PGT125; conditions: FIG. 13B
Source text: (§4) Both PGT128 and PGT125 are dependent on Man9 glycans on position N332 and N301 (Pejchal et al., 2011), with N332 being the primary glycan.
(§5) Binding of V3 Bnab to Man9 glycan.

PGT128 [4] = assay: SPR binding to captured mAb PGT128; conditions: FIG. 13A
Source text: as §4, §5

[5] = tested on: V3 loop non-neutralizing mAb 19b; assay: SPR binding to captured V3 loop non-neutralizing mAb 19b; conditions: FIG. 12 and FIG. 13D
Source text: as §4, §5

V1V2 mAb PGT145 = assay: Binding to V1V2 mAb PGT145; conditions: FIG. 13D
Source text: as §3

CH01-04 UCA = assay: SPR binding of V1V2 antigens to CH01 UCA; conditions: FIG. 1E, antigen 100 μg/ml
Protocol: as §1
(§6) This is the first antigen known to bind to the PG9 UCA. […] Thus, these two V1V2 peptide-glycans have selective reactivity toward the V1V2 BnAbs, and react poorly or not at all with the CH58 mature and UCA antibodies. Therefore, these V1V2 peptide-glycan immunogens are prime candidates for selective induction of V1V2 BnAb lineages that are normally sub-dominant with infrequent UCAs.

PG9 UCA = assay: SPR binding of V1V2 antigens to PG9 UCA; conditions: FIG. 1D, antigen 100 μg/ml
Protocol: as §1, §6

CH58 UCA = assay: Reactivity of CH58 UCA toward V1V2 glycopeptides; assay type: binding; conditions: data not shown
Source text: as §6

RV144 mAb CH58 = assay: Reactivity of RV144 mAb CH58 toward V1V2 glycopeptides; assay type: binding; conditions: data not shown
Source text: as §6

BnAb PG9 [6] = conditions: from previous work; cited from earlier work
BnAb CH01 [7] = conditions: from previous work; cited from earlier work

CC(=O)N[C@H]1[C@H](O[C@H]2[C@H](O)[C@@H](NC(C)=O)C(O)O[C@@H]2CO)O[C@H](CO)[C@@H](O[C@@H]2O[C@H](CO[C@H]3O[C@H](CO)[C@@H](O)[C@H](O)[C@@H]3O)[C@@H](O)[C@H](O[C@H]3O[C@H](CO)[C@@H](O)[C@H](O)[C@@H]3O)[C@@H]2O)[C@@H]1O (stereo partly drawn) [Man3 oligosaccharide, Man3GlcNAc2]
binding of PGT128 on glycan arrays (PGT128 [1]): not observed
binding to BnAb CH01 (BnAb CH01 [2]): not observed
binding to BnAb PG9 (BnAb PG9 [3]): not observed

CC(=O)N[C@@H]1[C@@H](O)[C@H](O[C@@H]2O[C@H](CO)[C@@H](O[C@H]3O[C@H](CO[C@H]4O[C@H](CO[C@H]5O[C@H](CO)[C@@H](O)[C@H](O)[C@@H]5O[C@H]5O[C@H](CO)[C@@H](O)[C@H](O)[C@@H]5O)[C@@H](O)[C@H](O[C@H]5O[C@H](CO)[C@@H](O)[C@H](O)[C@@H]5O)[C@@H]4O)[C@@H](O)[C@H](O[C@H]4O[C@H](CO)[C@@H](O)[C@H](O)[C@@H]4O[C@H]4O[C@H](CO)[C@@H](O)[C@H](O)[C@@H]4O[C@H]4O[C@H](CO)[C@@H](O)[C@H](O)[C@@H]4O)[C@@H]3O)[C@H](O)[C@H]2NC(C)=O)[C@@H](CO)O[C@H]1O [Man8, reference compound]
binding of PGTs 125-128 and 130 on glycan arrays (PGTs 125-128 and 130): showed binding

CC(=O)N[C@H]1[C@H](O[C@H]2[C@H](O)[C@@H](NC(C)=O)C(O)O[C@@H]2CO)O[C@H](CO)[C@@H](O[C@@H]2O[C@H](CO[C@H]3O[C@H](CO[C@H]4O[C@H](CO)[C@@H](O)[C@H](O)[C@@H]4O[C@H]4O[C@H](CO)[C@@H](O)[C@H](O)[C@@H]4O)[C@@H](O)[C@H](O[C@H]4O[C@H](CO)[C@@H](O)[C@H](O)[C@@H]4O[C@H]4O[C@H](CO)[C@@H](O)[C@H](O)[C@@H]4O)[C@@H]3O)[C@@H](O)[C@H](O[C@H]3O[C@H](CO)[C@@H](O)[C@H](O)[C@@H]3O[C@H]3O[C@H](CO)[C@@H](O)[C@H](O)[C@@H]3O[C@H]3O[C@H](CO)[C@@H](O)[C@H](O)[C@@H]3O)[C@@H]2O)[C@@H]1O (stereo partly drawn) [Man9 glycan, Man9GlcNAc2]
binding of PGTs 125-128 and 130 on glycan arrays (PGTs 125-128 and 130): showed binding
2G12 binding to free glycan (2G12): only detected at the highest concentration
affinity of PGT125 binding to free glycan (PGT125): affinities in μM
affinity of PGT128 binding to free glycan (PGT128 [4]): affinities in μM
binding to non-neutralizing V3 mAb 19b [5]: no binding
binding to V1V2 mAb PGT145 (V1V2 mAb PGT145): no binding

Man3 construct: V1V2 glycopeptide (SEQ ID NO: 9, AE.CM244/A244) bearing two N-linked Man3GlcNAc2 at N160 and N156 (ITDEVRN(Man3GlcNAc2)CSFN(Man3GlcNAc2)MTTELRDKKQKVHALFYKLDIVPI)
affinity for CH01 UCA (CH01-04 UCA): significant affinity
affinity for PG9 UCA (PG9 UCA): significant affinity
reactivity of CH58 UCA (CH58 UCA): only weak reactivity
binding to BnAb CH01 (BnAb CH01 [2]): bind
reactivity of mAb CH58 (RV144 mAb CH58): only weak reactivity
binding to BnAb PG9 (BnAb PG9 [3]): bind

Man5 construct: V1V2 glycopeptide (SEQ ID NO: 9) bearing two N-linked Man5GlcNAc2 at N160 and N156 (ITDEVRN(Man5GlcNAc2)CSFN(Man5GlcNAc2)MTTELRDKKQKVHALFYKLDIVPI)
affinity for CH01 UCA (CH01-04 UCA): to a lesser extent
reactivity of CH58 UCA (CH58 UCA): almost no affinity
binding to BnAb CH01 (BnAb CH01 [2]): bind
reactivity of mAb CH58 (RV144 mAb CH58): almost no affinity
binding to BnAb PG9 (BnAb PG9 [3]): bind

Man5GlcNAc2 [Man5 oligosaccharide]
binding to BnAb CH01 (BnAb CH01 [2]): not observed
binding to BnAb PG9 (BnAb PG9 [3]): not observed

aglycone: V1V2 peptide of SEQ ID NO: 9 with zero glycans (ITDEVRNCSFNMTTELRDKKQKVHALFYKLDIVPI)
binding to PG9 (BnAb PG9 [6]): did not show binding
binding to CH01 (BnAb CH01 [7]): did not show binding
binding to BnAb CH01 (BnAb CH01 [2]): not observed
binding to BnAb PG9 (BnAb PG9 [3]): not observed
